Data: patent US7884136B2, “Modified-release formulations of a bupropion salt” (Biovail Laboratories International S.R.L., priority 2005, dated 2011)

Columns and labels:
Assay type in all cases: physicochemical
[1] = Release of bupropion base from bupropion HCl and HBr
Procedure: It was previously observed that when 150 mg of bupropion HCl was tested for its release of bupropion, the base value that was released was 130 mg.

[2] = Accelerated stability study of bupropion HBr, closed bottles, 40° C./75% RH, 3 and 6 months, HPLC; conditions: 40° C./75% RH
Procedure: The samples were prepared in closed bottles and placed in the stability chamber. HPLC analysis was conducted on the samples prior to placing them in the stability chamber (time 0), and after 3 months and 6 months. The amounts of the main degradation products present at time 0 were compared with those amounts present after 3 months and 6 months. […] For each sample tested, at each time period, two different HPLC assays were run. The first assay labelled chromatographic purity A, measured the percentage of three impurities 3′chloropropiophenone, 3′-Chloro-2-bromopropiophenone and 3′-Chlorobenzoic acid. The second assay, labelled chromatographic purity B, measured the percentage of 2-N-(tert-Butyl)-aminopropiophenone, a single unknown impurity and the total unknown impurities.

[3] = Shelf life stability program of bupropion HBr, 25° C./60% RH, 3 and 6 months, HPLC; conditions: 25° C./60% RH, 3 and 6 months
Procedure: The stability of bupropion HBr was studied over a longer term under conditions meant to approximate standard storage or shelf conditions. Samples were prepared in closed containers and subjected to long-term storage at 25° C.+2° C. and 60%+5% RH in a stability chamber. The samples were analyzed by HPLC prior to being placed in the stability chamber (time 0) and after 3 months and 6 months. The amounts of the main degradation products present at time 0 were compared with the amounts present at 3 months and 6 months. As shown in Table 77-79 three different batches of bupropion HBr were tested. As in Example 10 each sample was tested under two HPLC assay conditions to identify 6 impurities or groups of impurities as described in Example 10.

## Br.CC(NC(C)(C)C)C(=O)c1cccc(Cl)c1 (stereo not shown) [Bupropion HBr, bupropion hydrobromide]
[1]; 150 mg of the salt tested
  Base value of bupropion released: 112 mg
[1]; 174 mg of the salt tested
  Base value of bupropion released: 130 mg
[2]; 3-month and 6-month
  Total percentage of impurities, change: did not change
[2]; 3 and 6 months, three batches
  Impurity 3′-chloropropiophenone, trend: slight increase
[2]; 6 months
  Stability under the accelerated stability test conditions: highly stable
[3]
  Other impurities, trend: did not show an increasing trend over time
[3]; three batches
  Impurity 3′-chloropropiophenone, trend: increased slightly over time
